Test results published in the NIST ThermoML archive (doi:10.1021/je900596d).

Details: for mass density: Fluid (supercritical or subcritical phases), Vibrating tube method; for vapor or sublimation pressure: Liquid, Closed cell (Static) method

FC(F)=C(F)C(F)(F)F [hexafluoropropene]
mass density [kg/m3]
Details | 358.16 K | 362.9 K
6.3 kPa | – | 0.34
6.7 kPa | 0.18 | –
7.2 kPa | 0.21 | –
7.5 kPa | 0.23 | –
7.7 kPa | 0.26 | –
8.4 kPa | – | 0.44
8.5 kPa | 0.27 | –
8.8 kPa | 0.31 | –
9.2 kPa | 0.32 | –
9.8 kPa | 0.34 | –
10.7 kPa | – | 0.55
12.4 kPa | 0.45 | –
13.4 kPa | 0.5 | –
14.5 kPa | 0.6 | –
15.1 kPa | – | 0.65
15.5 kPa | 0.63 | –
16.5 kPa | 0.69 | –
17.2 kPa | – | 0.88
17.6 kPa | 0.76 | –
19.6 kPa | 0.84 | –
20.7 kPa | 0.88 | –
20.8 kPa | – | 1.04
21.7 kPa | 0.92 | –
22.7 kPa | 1.01 | –
23 kPa | – | 1.15
23.9 kPa | 1.07 | –
25.2 kPa | – | 1.27
25.9 kPa | 1.13 | –
26.9 kPa | 1.2 | –
27.9 kPa | 1.24 | –
29 kPa | 1.31 | –
30 kPa | 1.37 | –
31 kPa | 1.42 | –
31.8 kPa | – | 1.53
32 kPa | 1.45 | –
33 kPa | 1.5 | –
34 kPa | 1.62 | 1.65
35.1 kPa | 1.63 | –
36.1 kPa | 1.72 | –
37.4 kPa | – | 1.78
39.1 kPa | 1.8 | –
40.1 kPa | 1.85 | –
40.2 kPa | – | 2
41.2 kPa | 1.9 | –
42.2 kPa | 1.99 | –
42.3 kPa | – | 2.22
45.3 kPa | 2.13 | –
47.8 kPa | – | 2.29
52.2 kPa | 2.54 | –
57.7 kPa | – | 2.87
58.8 kPa | 2.84 | –
64.3 kPa | – | 3.19
65.5 kPa | 3.31 | –
72.2 kPa | 3.58 | –
75.1 kPa | – | 3.75
79 kPa | 3.91 | –
81.7 kPa | – | 4.07
85.8 kPa | 4.34 | –
88 kPa | – | 4.26
92.6 kPa | 4.61 | –
96.7 kPa | – | 4.85
99.4 kPa | 4.96 | –
103.1 kPa | – | 5.2
109.4 kPa | – | 5.38
115.5 kPa | 5.84 | –
122.1 kPa | – | 6.16
124.6 kPa | 6.23 | –
128.4 kPa | – | 6.44
133.8 kPa | 6.76 | –
134.6 kPa | – | 6.83
140.8 kPa | – | 7.19
142.9 kPa | 7.23 | –
146.9 kPa | – | 7.41
152 kPa | 7.73 | –
153.1 kPa | – | 7.6
161.1 kPa | 8.2 | –
162.6 kPa | – | 8.2
170.1 kPa | 8.69 | –
172.6 kPa | – | 8.83
179.2 kPa | 9.15 | –
183.5 kPa | – | 9.3
188.3 kPa | 9.64 | –
191.9 kPa | – | 9.53
197.2 kPa | 10.14 | –
201.8 kPa | 10.33 | –
205.9 kPa | – | 10.23
215.2 kPa | 11.03 | –
217.1 kPa | – | 10.89
228.6 kPa | 11.76 | –
239.3 kPa | – | 12.29
241.9 kPa | 12.39 | –
250.5 kPa | – | 12.86
255.2 kPa | 13.18 | –
261.7 kPa | – | 13.26
268.5 kPa | 13.87 | –
272.8 kPa | – | 13.91
281.6 kPa | 14.57 | –
284 kPa | – | 14.66
294.9 kPa | – | 14.96
295.2 kPa | 15.37 | –
305.9 kPa | – | 15.65
308.9 kPa | 16.07 | –
322.3 kPa | – | 16.67
323.1 kPa | 16.83 | –
337.5 kPa | 17.58 | –
338.5 kPa | – | 17.36
352.1 kPa | 18.44 | –
354.9 kPa | – | 18.21
366.8 kPa | 19.21 | –
370.9 kPa | – | 19.21
381.5 kPa | 19.95 | –
386.8 kPa | – | 19.93
396.2 kPa | 20.78 | –
402.6 kPa | – | 20.85
411 kPa | 21.59 | –
418.2 kPa | – | 21.77
427.6 kPa | 22.57 | –
444 kPa | 23.52 | –
449.3 kPa | – | 23.6
460.4 kPa | 24.33 | –
476.7 kPa | 25.35 | –
485.1 kPa | – | 25.57
492.9 kPa | 26.26 | –
500.3 kPa | – | 26.4
509.2 kPa | 27.13 | –
520.6 kPa | – | 27.39
525.3 kPa | 28.12 | –
540.4 kPa | – | 28.38
541.5 kPa | 29.02 | –
557.6 kPa | 29.96 | –
560.3 kPa | – | 29.54
575.1 kPa | 31 | –
580 kPa | – | 30.72
592.7 kPa | 31.99 | –
599.7 kPa | – | 31.79
610.1 kPa | 32.94 | –
619.3 kPa | – | 32.97
627.5 kPa | 34 | –
638.8 kPa | – | 34.15
645.1 kPa | 35.06 | –
658.1 kPa | – | 35.19
663.8 kPa | 36.18 | –
677.4 kPa | – | 36.24
682.3 kPa | 37.25 | –
696.6 kPa | – | 37.68
700.8 kPa | 38.41 | –
715.6 kPa | – | 38.68
719.1 kPa | 39.53 | –
737.3 kPa | 40.62 | –
753.3 kPa | – | 40.79
755.2 kPa | 41.68 | –
772.1 kPa | – | 41.86
773.2 kPa | 42.77 | –
790.7 kPa | – | 43.17
791.1 kPa | 43.9 | –
808.6 kPa | 44.92 | –
809.2 kPa | – | 44.11
827.4 kPa | – | 45.36
843.9 kPa | 47.16 | –
845.6 kPa | – | 46.55
861.2 kPa | 48.3 | –
863.7 kPa | – | 47.41
878.4 kPa | 49.34 | –
881.6 kPa | – | 48.62
895.4 kPa | 50.38 | –
899.5 kPa | – | 49.68
912.3 kPa | 51.52 | –
917.1 kPa | – | 50.72
929.2 kPa | 52.65 | –
934.7 kPa | – | 52.13
945.9 kPa | 53.68 | –
952.2 kPa | – | 53.09
964.1 kPa | 54.95 | –
969.4 kPa | – | 54.03
981.4 kPa | 56.09 | –
999 kPa | 57.2 | –
1004 kPa | 57.55 | –
1037.2 kPa | 59.89 | –
1056.7 kPa | 61.12 | –
1079.5 kPa | 62.72 | –
1113.6 kPa | 65.06 | –
1151.3 kPa | 67.79 | –
1177.8 kPa | 69.69 | –
1204.6 kPa | 71.61 | –
1231.5 kPa | 73.4 | –
1251 kPa | 74.95 | –
1277.5 kPa | 76.93 | –
1297.2 kPa | 78.23 | –
1318.3 kPa | 79.8 | –
1351 kPa | 82.19 | –
1384.5 kPa | 84.6 | –
1419.6 kPa | 87.38 | –
1453.8 kPa | 89.96 | –
1487.2 kPa | 92.64 | –
1522.4 kPa | 95.5 | –
1557 kPa | 98.35 | –
1592 kPa | 101.11 | –
1624.7 kPa | 103.88 | –
1659.3 kPa | 106.85 | –
1677.7 kPa | 108.37 | –
1712.3 kPa | 111.38 | –
1748.1 kPa | 114.59 | –
1780.9 kPa | 117.54 | –
1815.7 kPa | 120.8 | –
1848.2 kPa | 123.82 | –
1883.1 kPa | 127.18 | –
1916.7 kPa | 130.47 | –
1948.8 kPa | 133.66 | –
1982.5 kPa | 137.05 | –
2016.7 kPa | 140.6 | –
2051.6 kPa | 144.28 | –
2085.7 kPa | 147.98 | –
2118.7 kPa | 151.7 | –
2152.9 kPa | 155.54 | –
2185.6 kPa | 159.34 | –
2250.5 kPa | 167.24 | –
2283.4 kPa | 171.42 | –
2316.3 kPa | 175.71 | –
2349.2 kPa | 180.05 | –
2381.8 kPa | 184.6 | –
2414.3 kPa | 189.16 | –
2462.8 kPa | 196.45 | –
2529.2 kPa | 206.94 | –
2562.6 kPa | 212.61 | –
2581.2 kPa | 215.74 | –
2616.7 kPa | 222.24 | –
2635.2 kPa | 225.67 | –
2669.9 kPa | 232.45 | –
2703.7 kPa | 239.44 | –
2738.3 kPa | 247.03 | –
2771.6 kPa | 254.87 | –
2806.3 kPa | 263.68 | –
2839.2 kPa | 272.73 | –
2872.4 kPa | 282.77 | –
2905.9 kPa | 293.88 | –
2939.1 kPa | 305.79 | –
2972 kPa | 319.7 | –
3000.1 kPa | 333.22 | –
3003 kPa | 334.75 | –
3005.7 kPa | 336.23 | –
3008.2 kPa | 337.55 | –
3010.9 kPa | 338.92 | –
3013.2 kPa | 340.27 | –
3015.5 kPa | 341.83 | –
3017.6 kPa | 343.29 | –
3019.8 kPa | 344.7 | –
3022.4 kPa | 346.21 | –
3025.8 kPa | 348.17 | –
3027.8 kPa | 349.31 | –
3031.6 kPa | 351.6 | –
3035.5 kPa | 354.08 | –
3037.5 kPa | 355.4 | –
3041.3 kPa | 357.97 | –
3045.1 kPa | 360.72 | –
3047.1 kPa | 362.14 | –
3050.9 kPa | 364.96 | –
3054.3 kPa | 367.81 | –
3057.8 kPa | 370.74 | –
3061.2 kPa | 373.72 | –
3064.5 kPa | 376.75 | –
3067.7 kPa | 379.88 | –
3071 kPa | 383.12 | –
3074 kPa | 386.4 | –
3077 kPa | 389.78 | –

Details | vapor or sublimation pressure [kPa]
358.26 K | 3095.1
358.76 K | 3128.1
